Laboratory results from patent US20240208992A1, “MACROCYCLES AS CFTR MODULATORS” (Idorsia Pharmaceuticals Ltd, priority 2021, published 2024).

Molecular target: human F508del-CFTR (Homo sapiens, UniProt P13569, DEL508-508)
Assay: F508del-CFTR cell surface expression (corrector activity), DiscoveRx ß-galactosidase complementation chemiluminescence assay in recombinant U2OS cell line;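 also: U2OS cells co-expressing ProLink-tagged F508del-CFTR and a membrane-anchored enzyme acceptor, where more surface CFTR restores β-galactosidase activity measured by chemiluminescence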
Settings: for EC50: EC50, F508del-CFTR cell surface expression; for Emax: U2OS
[1] = U2OS cell line, 16h compound incubation, geomean values
[2] = in relation to the Emax of the corrector lumacaftor (=100%), U2OS cell line, 16h compound incubation, arithmetic mean values
[3] = U2OS cells, 16h compound incubation, geomean values
[4] = in relation to Emax of corrector lumacaftor (=100%), arithmetic mean values
[5] = U2OS cells, 16h compound incubation, geomean of several measurements
[6] = in relation to the Emax of the corrector lumacaftor (=100%), U2OS cells, 16h compound incubation, arithmetic mean

Chain of human F508del-CFTR (P13569 with tags, fused parts or gaps DEL508-508): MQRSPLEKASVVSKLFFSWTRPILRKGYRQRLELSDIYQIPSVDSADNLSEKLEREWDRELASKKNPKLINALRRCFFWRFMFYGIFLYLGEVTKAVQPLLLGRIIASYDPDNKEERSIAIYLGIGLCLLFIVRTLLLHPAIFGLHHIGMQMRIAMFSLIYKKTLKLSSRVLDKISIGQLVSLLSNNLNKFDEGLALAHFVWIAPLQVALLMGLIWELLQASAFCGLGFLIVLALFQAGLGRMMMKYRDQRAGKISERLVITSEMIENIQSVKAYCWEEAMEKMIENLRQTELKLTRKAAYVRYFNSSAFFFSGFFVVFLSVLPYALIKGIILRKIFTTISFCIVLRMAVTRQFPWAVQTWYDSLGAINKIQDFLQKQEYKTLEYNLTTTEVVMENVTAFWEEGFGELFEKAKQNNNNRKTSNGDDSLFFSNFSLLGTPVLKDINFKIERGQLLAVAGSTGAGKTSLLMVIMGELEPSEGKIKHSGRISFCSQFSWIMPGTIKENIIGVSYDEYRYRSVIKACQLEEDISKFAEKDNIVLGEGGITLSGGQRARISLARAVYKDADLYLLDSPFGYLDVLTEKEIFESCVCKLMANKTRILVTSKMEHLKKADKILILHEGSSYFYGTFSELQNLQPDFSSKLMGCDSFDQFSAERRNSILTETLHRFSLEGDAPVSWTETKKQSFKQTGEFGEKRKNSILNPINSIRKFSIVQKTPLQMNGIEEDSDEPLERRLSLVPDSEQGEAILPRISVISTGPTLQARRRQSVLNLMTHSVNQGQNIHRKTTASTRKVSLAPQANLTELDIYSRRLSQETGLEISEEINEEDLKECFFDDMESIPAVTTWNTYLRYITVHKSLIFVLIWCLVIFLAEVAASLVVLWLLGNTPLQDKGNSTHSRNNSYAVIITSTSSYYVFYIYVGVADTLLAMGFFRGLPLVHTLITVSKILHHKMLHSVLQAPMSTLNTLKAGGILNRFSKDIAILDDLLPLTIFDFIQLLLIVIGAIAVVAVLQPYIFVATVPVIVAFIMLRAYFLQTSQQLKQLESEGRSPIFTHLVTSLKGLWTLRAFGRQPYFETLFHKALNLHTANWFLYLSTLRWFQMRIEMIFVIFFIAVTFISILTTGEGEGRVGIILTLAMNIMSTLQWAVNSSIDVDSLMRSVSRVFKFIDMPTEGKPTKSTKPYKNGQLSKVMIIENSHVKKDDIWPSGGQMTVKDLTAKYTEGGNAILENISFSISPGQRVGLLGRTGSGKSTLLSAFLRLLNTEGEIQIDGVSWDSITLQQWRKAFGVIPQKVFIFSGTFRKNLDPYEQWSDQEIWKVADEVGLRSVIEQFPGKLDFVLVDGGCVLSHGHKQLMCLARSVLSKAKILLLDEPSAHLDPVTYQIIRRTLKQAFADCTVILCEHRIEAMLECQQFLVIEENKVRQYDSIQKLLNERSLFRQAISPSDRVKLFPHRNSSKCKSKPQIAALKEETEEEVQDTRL

Row | SMILES | EC50 [1] | Emax [2] | EC50 [3] | Emax [4] | other results
1 | COc1cccc(CCNC(=O)[C@@H]2CC(=O)N(C)[C@@H](CC(C)C)C(=O)N3CCCC[C@@H]3C(=O)N[C@H](Cc3ccccc3)COc3ccc(OC)cc3C(=O)N2)c1 [Example 587, (7S,11S,20R,22aR)-20-benzyl-7-isobutyl-15-methoxy-N-(3-methoxyphenethyl)-8-methyl-6,9,13,22-tetraoxo-1,3,4,6,7,8,9,10,11,12,13,19,20,21,22,22a-hexadecahydro-2H-benzo[p]pyrido[2,1-f][1]oxa[4,7,10,14]tetraazacycloheptadecine-11-carboxamide] |  |  | 414 nM | 106% | 
2 | Cc1cc2c3c(ccc2cn1)OC[C@@H](Cc1ccccc1)NC(=O)C1(CC1)N(C)C(=O)[C@H](CC(C)C)N(C)C(=O)C[C@@H](C(=O)NCCn1nc2ccccc2n1)NC3=O [Example 904, (3′S,7′S,13′R)-N-(2-(2H-benzo[d][1,2,3]triazol-2-yl)ethyl)-13′-benzyl-7′-isobutyl-6′,9′,20′-trimethyl-1′,5′,8′,11′-tetraoxo-2′,3′,4′,5′,6′,7′,8′,9′,11′,12′,13′,14′-dodecahydro-1′H-spiro[cyclopropane-1,10′-[1]oxa[4,7,10,14]tetraazacycloheptadecino[16,17-f]isoquinoline]-3′-carboxamide] |  |  |  |  | EC50 [5]: 722 nM; Emax [6]: 365%
3 | Cc1cc2c3c(ccc2cn1)OC[C@@H](Cc1ccccc1)NC(=O)[C@@H](CC(F)(F)F)N(C)C(=O)[C@H](CC(C)C)N(C)C(=O)C[C@@H](C(=O)NCCc1noc(C2CC2)n1)NC3=O [Example 950, (3S,7S,10R,13R)-13-benzyl-N-(2-(5-cyclopropyl-1,2,4-oxadiazol-3-yl)ethyl)-7-isobutyl-6,9,20-trimethyl-1,5,8,11-tetraoxo-10-(2,2,2-trifluoroethyl)-1,2,3,4,5,6,7,8,9,10,11,12,13,14-tetradecahydro-[1]oxa[4,7,10,14]tetraazacycloheptadecino[16,17-f]isoquinoline-3-carboxamide] |  |  |  |  | EC50 [5]: 201 nM; Emax [6]: 464%
4 | COc1cccc(CCNC(=O)[C@@H]2CC(=O)N(C)[C@@H](CC(C)C)C(=O)N(CCC3CCCCC3)CC(=O)N[C@H](Cc3ccccc3)COc3cccc(C)c3C(=O)N2)c1 [Example 247, (3R,9S,13S)-3-benzyl-7-(2-cyclohexylethyl)-9-isobutyl-N-(3-methoxyphenethyl)-10,16-dimethyl-5,8,11,15-tetraoxo-2,3,4,5,6,7,8,9,10,11,12,13,14,15-tetradecahydrobenzo[p][1]oxa[4,7,10,14]tetraazacycloheptadecine-13-carboxamide] | 146 nM | 111% |  |  | 
5 | CC(C)C[C@H]1C(=O)N(C)[C@H](Cc2nc(-c3ccc(F)cn3)no2)C(=O)N[C@H](Cc2ccccc2)COc2cnc3ccc(F)cc3c2C(=O)N[C@H](C(=O)NCCn2nc3ccccc3n2)CC(=O)N1C [Example 840, (3S,7S,10R,13R)-N-(2-(2H-benzo[d][1,2,3]triazol-2-yl)ethyl)-13-benzyl-20-fluoro-10-((3-(5-fluoropyridin-2-yl)-1,2,4-oxadiazol-5-yl)methyl)-7-isobutyl-6,9-dimethyl-1,5,8,11-tetraoxo-1,2,3,4,5,6,7,8,9,10,11,12,13,14-tetradecahydro-[1]oxa[4,7,10,14]tetraazacycloheptadecino[17,16-c]quinoline-3-carboxamide] |  |  |  |  | EC50 [5]: 128 nM; Emax [6]: 363%
6 | CCOCC[C@@H]1C(=O)N[C@H](Cc2ccccc2)COc2ccc3ncc(F)cc3c2C(=O)N[C@H](C(=O)NCCn2nnc(C3CC3)n2)CC(=O)N(C)[C@@H](CC(C)C)C(=O)N1C [Example 896, (3S,7S,10R,13R)-13-benzyl-N-(2-(5-cyclopropyl-2H-tetrazol-2-yl)ethyl)-10-(2-ethoxyethyl)-20-fluoro-7-isobutyl-6,9-dimethyl-1,5,8,11-tetraoxo-1,2,3,4,5,6,7,8,9,10,11,12,13,14-tetradecahydro-[1]oxa[4,7,10,14]tetraazacycloheptadecino[16,17-f]quinoline-3-carboxamide] |  |  |  |  | EC50 [5]: 188 nM; Emax [6]: 427%
7 | COc1ccc(CCNC(=O)[C@@H]2CC(=O)N(C)[C@@H](CC(C)C)C(=O)N3CCCC[C@@H]3C(=O)N[C@H](Cc3ccccc3)COc3ccnc(OC)c3C(=O)N2)cc1 [Example 185, (7S,11S,17aR,20R)-20-benzyl-11-isobutyl-4-methoxy-N-(4-methoxyphenethyl)-10-methyl-5,9,12,18-tetraoxo-5,6,7,8,9,10,11,12,15,16,17,17a,18,19,20,21-hexadecahydro-14H-dipyrido[2,1-f:3′,4′-p][1]oxa[4,7,10,14]tetraazacycloheptadecine-7-carboxamide] | 379 nM | 275% |  |  | 
8 | COc1cccc(CCNC(=O)[C@@H]2CC(=O)N(C)[C@@H](CC(C)C)C(=O)N3CCCC[C@H]3C(=O)N[C@H](Cc3ccccc3)COc3ccc4nc(C)oc4c3C(=O)N2)c1 [Example 615, (8S,12S,18aS,21R)-21-benzyl-12-isobutyl-N-(3-methoxyphenethyl)-4,11-dimethyl-6,10,13,19-tetraoxo-6,7,8,9,10,11,12,13,16,17,18,18a,19,20,21,22-hexadecahydro-15H-oxazolo[4′,5′:5,6]benzo[1,2-p]pyrido[2,1-f][1]oxa[4,7,10,14]tetraazacycloheptadecine-8-carboxamide] |  |  | 465 nM | 170% | 

Continued, in another order:

Row | EC50 [1] | Emax [2] | EC50 [3] | Emax [4] | SMILES | other results
9 | 292 nM | 221% |  |  | COc1cccc2c1C(=O)N[C@H](C(=O)NCCc1cc(C)no1)CC(=O)N(C)[C@@H](CC(C)C)C(=O)N(CCC1CCCCC1)CC(=O)N[C@H](Cc1ccccc1)CO2 [Example 214, (3R,9S,13S)-3-benzyl-7-(2-cyclohexylethyl)-9-isobutyl-16-methoxy-10-methyl-N-(2-(3-methylisoxazol-5-yl)ethyl)-5,8,11,15-tetraoxo-2,3,4,5,6,7,8,9,10,11,12,13,14,15-tetradecahydrobenzo[p][1]oxa[4,7,10,14]tetraazacycloheptadecine-13-carboxamide] | 
10 |  |  | 160 nM | 330% | COc1nccc2c1C(=O)N[C@H](C(=O)NCCc1cc(C3CC3)no1)CC(=O)N(C)[C@@H](CC(C)C)C(=O)N1CCC3(CC3)C[C@@H]1C(=O)N[C@H](Cc1ccccc1)CO2 [Example 668, (7′S,11′S,17a′R,20′R)-20′-benzyl-N-(2-(3-cyclopropylisoxazol-5-yl)ethyl)-11′-isobutyl-4′-methoxy-10′-methyl-5′,9′,12′,18′-tetraoxo-5′,6′,7′,8′,9′,10′,11′,12′,14′,15′,17′,17a′,18′,19′,20′,21′-hexadecahydrospiro[cyclopropane-1,16′-dipyrido[2,1-f:3′,4′-p][1]oxa[4,7,10,14]tetraazacycloheptadecine]-7′-carboxamide] | 
11 | 260 nM | 174% |  |  | COc1ccc2c(c1)C(=O)N[C@H](C(=O)NCCc1ccc3c(c1)OCCC3)CC(=O)N(C)[C@@H](CC(C)C)C(=O)N(C)CC(=O)N[C@H](Cc1ccccc1)CO2 [Example 245, (3R,9S,13S)-3-benzyl-N-(2-(chroman-7-yl)ethyl)-9-isobutyl-17-methoxy-7,10-dimethyl-5,8,11,15-tetraoxo-2,3,4,5,6,7,8,9,10,11,12,13,14,15-tetradecahydrobenzo[p][1]oxa[4,7,10,14]tetraazacycloheptadecine-13-carboxamide] | 
12 |  |  | 67 nM | 314% | COc1nccc2c1C(=O)N[C@H](C(=O)NCCc1cc(C3CC3)no1)CC(=O)N(C)[C@@H](CC(C)C)C(=O)N1CC[C@H](c3ccccc3)C[C@@H]1C(=O)N[C@H](Cc1ccccc1)CO2 [Example 673, (7S,11S,17aR,20R)-20-benzyl-N-(2-(3-cyclopropylisoxazol-5-yl)ethyl)-11-isobutyl-4-methoxy-10-methyl-5,9,12,18-tetraoxo-16-phenyl-5,6,7,8,9,10,11,12,15,16,17,17a,18,19,20,21-hexadecahydro-14H-dipyrido[2,1-f:3′,4′-p][1]oxa[4,7,10,14]tetraazacycloheptadecine-7-carboxamide] | 
13 |  |  | 593 nM | 155% | COc1cc2c(cn1)OC[C@@H](Cc1ccccc1)NC(=O)[C@@H]1CCCCN1C(=O)[C@H](CC(C)C)N(C)C(=O)C[C@@H](C(=O)NCCc1cc(C3CC3)no1)NC2=O (mixture of isomers) [Example 652, (7S,11S,17aRS,20R)-20-benzyl-N-(2-(3-cyclopropylisoxazol-5-yl)ethyl)-11-isobutyl-3-methoxy-10-methyl-5,9,12,18-tetraoxo-5,6,7,8,9,10,11,12,15,16,17,17a,18,19,20,21-hexadecahydro-14H-dipyrido[2,1-f:4′,3′-p][1]oxa[4,7,10,14]tetraazacycloheptadecine-7-carboxamide] | 
14 | 954 nM | 194% |  |  | COCCCc1cnn(CCNC(=O)[C@@H]2CC(=O)N(C)[C@@H](CC(C)C)C(=O)N(C)C3(CC3)C(=O)N[C@H](Cc3ccccc3)COc3cnc4ccc(F)cc4c3C(=O)N2)c1 [Example 174, (3′S,7′S,13′R)-13′-benzyl-20′-fluoro-7′-isobutyl-N-(2-(4-(3-methoxypropyl)-1H-pyrazol-1-yl)ethyl)-6′,9′-dimethyl-1′,5′,8′,11′-tetraoxo-2′,3′,4′,5′,6′,7′,8′,9′,11′,12′,13′,14′-dodecahydro-1′H-spiro[cyclopropane-1,10′-[1]oxa[4,7,10,14]tetraazacycloheptadecino[17,16-c]quinoline]-3′-carboxamide] | 
15 |  |  | 574 nM | 320% | COc1cc(OC)c2c(c1)OC[C@@H](Cc1ccccc1)NC(=O)[C@H]1CCCCN1C(=O)[C@H](CC(C)C)N(C)C(=O)C[C@@H](C(=O)NCCc1cc(C)no1)NC2=O [Example 609, (7S,11S,20R,22aR)-20-benzyl-7-isobutyl-14,16-dimethoxy-8-methyl-N-(2-(3-methylisoxazol-5-yl)ethyl)-6,9,13,22-tetraoxo-1,3,4,6,7,8,9,10,11,12,13,19,20,21,22,22a-hexadecahydro-2H-benzo[p]pyrido[2,1-f][1]oxa[4,7,10,14]tetraazacycloheptadecine-11-carboxamide] | 
